{
  "source": "patent US20140275234A1",
  "about": "“COMPOSITIONS AND METHODS OF USING CRYSTALLINE FORMS OF WORTMANNIN ANALOGS” (ONCOTHYREON INC., priority 2010, published 2014)",
  "key": {"[1]": {"system": "phosphatidylinositol-3-kinase (PI-3K)", "conditions": "cited from earlier work"}, "[2]": {"assay": "Solubility Screening Test I and II, HPLC of supernatant", "assay_type": "physicochemical", "conditions": "in toluene, anisole, and o-xylene", "protocol": "For each solvent, a 100 μL glass crimp-top vial was charged with ˜10 mg of PX-866 and sealed. By syringe, 2 parts of the appropriate solvent was added. If PX-866 dissolved completely, no further work was done. If necessary, more solvent was added to obtain a supernatant. The crimped vial was sonicated for 15 minutes and then centrifuged for 30 seconds. 1.0 μL of the supernatant was removed by syringe and added to a sealed HPLC vial containing 500 μL of acetonitrile. The same saturated solution was then heated for 30 minutes to a set point of 50° C., centrifuged again, and a second HPLC vial was prepared with 1.0 μL of the supernatant at 50° C. In the case of toluene, anisole, o-xylene, propyl acetate, 4-methyl-2-pentanone, and 1-pentanol the room temperature supernatant was transferred to a clean vial and cooled down to 0° C., and then −20° C. For each temperature, an HPLC vial was prepared with 1.0 μL of the supernatant. HPLC samples were run using the method described below and the 254 nm AUC was plotted on a calibration curve to obtain solubility data.\nThe samples that crystallized were cooled to 0° C. and subsequently −20° C. to acquire two additional temperature points. Solubility in the aliphatic solvents (propyl acetate, 4-methyl-2-pentanone, and 1-pentanol) decreased drastically with temperature from RT to −20° C."}, "[3]": {"conditions": "aqueous solutions at either 37° C. or 0° C. at neutral pH; cited from earlier work"}},
  "data": [
    {"smiles": "COC[C@H]1OC(=O)c2coc3c2[C@@]1(C)C1=C(C3=O)[C@@H]2CCC(=O)[C@@]2(C)C[C@H]1OC(C)=O", "note": "[wortmannin]", "values": [
      {"measurement": "inhibition of PI-3K", "setting": "[1]", "value": "irreversibly inhibits"},
      {"measurement": "inhibition of PI-3 kinase isoforms", "setting": "[1]; p110α, p110β, p110δ and p110γ", "value": "inhibited equally"},
      {"measurement": "Solubility", "setting": "[2]", "value": "low"},
      {"measurement": "stability in aqueous solution", "setting": "[3]", "value": "subject to decomposition"}
    ]}
  ]
}
